Experimental data reported in patent US20230355549A1, “METHOD OF PREVENTING KIDNEY INJURY DISRUPTION OF INTESTINAL LYMPHATICS” (Vanderbilt University, priority 2020, published 2023).
Structures can show the parent of a compound that is named as a salt.

Assays:
THP-1 cells = test: VEGFC mRNA in THP-1 derived macrophages; type: cell-based; settings: apoAI 10 μg/ml, IsoLG 1 μM/L, 48 h, vs unmodified apoAI, FIG. 6D
Description: THP-1 cells were plated and differentiated into macrophages by […] containing 10% FBS and 50 ng/ml phorbol 12-myristate 13-acetate for 3 days. Cells were incubated with unmodified or IsoLG-modified apoAI (apoAI: 10 μg/ml, IsoLG: 1 μM/L) for 48 h. VEGFC mRNA was assessed by RT-PCR.

[1] = tested on: isolated mesenteric lymphatic vessels; test: Lymphatic dynamics ex vivo, isolated mesenteric lymphatic vessels
Description: Mesenteric lymphatic vessels were collected and mounted in a perfusion chamber. Chambers were placed on inverted microscopes equipped with a digital image capture system (IonOptix) to record pre-valve intraluminal diameters and frequency of contractions. Vessels were warmed to 37° C., pressurized to 0.5 mmHg using a column of Krebs buffer, and allowed to equilibrate (20-60 minutes). Viable vessels were then pressurized in a stepwise manner to a constant pressure of 3.5 mmHg, then exposed to purified apoAI or modified apoAI using 1 molar equivalent synthetic IsoLG or vehicle (DMSO). Fresh Krebs buffer was circulated to facilitate wash out. Next vessels were exposed to IsoLG-modified apoAI. After each challenge, lumen diameters were allowed to plateau (40-60 minutes).

[2] = tested on: Primary adult dermal lymphatic endothelial cells (LECs); test: Cultured lymphatic endothelial cells (LECs) exposed to IsoLG-modified apoAI; type: cell-based; settings: apoAI 10 μg/ml, IsoLG 1 μM/L, 18 h, vs unmodified apoAI
Description: Primary adult dermal lymphatic endothelial cells (LECs) (HMVEC-DLyAd, Lonza) were cultured with conditioned growth medium (Lonza). Cells at passage 5-6 with ˜70% confluence were starved in serum-free medium overnight, then incubated with unmodified or IsoLG-modified apoAI (apoAI: 10 μg/ml, IsoLG: 1 μM/L) for 18 h. […] Quantification of eNOS (Nos3) and β-actin (ACTB) mRNA was performed by RT-PCR and production of superoxide was assessed by high-performance liquid chromatography.

ileal organoids = test: IsoLG adduct production in cultured ileal organoids (enteroids); type: cell-based; settings: 1 mmol/L, 3 days, vs vehicle, FIG. 4C
Description: (§1) Albumin (Exocell), apoAI (Mybiosource), sphingosine-1 phosphate (S1P) (Mybiosource) and VEGF-C levels (Mybiosource) were measured by ELISA. Albuminuria was measured as urine albumin-to-creatinine ratio (ACR) (Nephrat II, Exocell) and QuantiChrom™ Creatinine Assay Kit (Bioassay Systems), respectively. Plasma and lymph total cholesterol and triglycerides were measured enzymatically (Cliniqa). HDL and LDL fractions were isolated from plasma and lymph by density-gradient ultracentrifugation after adjustment with potassium bromide. Lipoprotein particle size was evaluated by NMR methodology (Liposcience). Colorimetric assays were used to measure protein (BCA, ThermoFisher). Lipoproteins in plasma and lymph were separated by size-exclusion chromatography (SEC) using an Akta Pure fast-protein liquid chromatography (FPLC) system (GE Healthcare). Total IsoLG-protein adduct by LC/MS was measured as IsoLG-lysine after complete proteolytic digestion of lymph samples.
Intact perfused intestine was used to generate ileal organoids. Cultured ileal organoids were incubated in medium with or without indoxyl sulfate (1 mmol/L, Sigma) for 3 days. Total protein was extracted for quantitation of IsoLG.

Sprague Dawley rats = settings: rat, in vivo, ip, 125 mg/kg
Description: Adult male Sprague Dawley rats (200-225 g, Charles River) were housed under a 12-h light/dark cycle with free access to normal rat chow and water. Kidney injury was induced by a single injection of puromycin […] (PAN) (125 mg/kg body weight, i.p.) while saline-injected rats served as controls (Cont). Eight days after injection, rats were sacrificed and blood, urine, and tissues were harvested. We also studied adult male (12 weeks old) Nphs1-hCD25 transgenic (NEP25, C57 bl/6 background) mice expressing human CD25 on podocytes can be selectively injured by injection of recombinant immunotoxin, anti-Tac (Fv)-PE38 (LMB2, 1 ng/g BW, i.v. generously provided by Dr. Ira Pastan) that results in proteinuria. These and wild type control mice were housed under normal conditions with free access to regular rodent chow and water. Two weeks after LMB2, mice were sacrificed and blood, urine and tissues harvested. All animal procedures were approved by the Institutional Animal Care and Use Committee at Vanderbilt University.
Mesenteric lymph was collected in a subset of conscious rats following cannulation of the mesenteric lymph duct. The rats were placed in Bollman cages in a temperature- and humidity-controlled incubator and lymph collected hourly for at least 3 h.
as §1

IsoLG-apoAI: purified apoAI modified using 1 molar equivalent synthetic IsoLG
VEGFC mRNA expression (THP-1 cells): significantly increased | end-systolic diameter (ESD) ([1]; FIG. 5D): failed to significantly alter | end-diastolic diameter (EDD) ([1]; FIG. 5E): significantly decreased | amplitude of contraction ([1]; FIG. 5F): significantly reduced | frequency of contractions ([1]; vs unmodified apoAI, FIG. 5C): increased frequency of contractions | production of ROS ([2]; FIG. 5A): significantly greater production of ROS | eNOS (Nos3) gene expression ([2]; FIG. 5B): increased Nos3

O=S(=O)(O)Oc1c[nH]c2ccccc12 [indoxyl sulfate]
IsoLG adduct production (ileal organoids): significantly increased

CN(C)c1ncnc2c1ncn2[C@@H]1O[C@H](CO)[C@@H](N)[C@H]1O [PAN, puromycin aminoglycoside]
ACR (albumin/creatinine concentration ratio) (Sprague Dawley rats): 126.652 ± 13.283 mg/mg | Plasma Albumin (Sprague Dawley rats): 350.7 ± 27.3 mg/dL | Plasma Cholesterol (Sprague Dawley rats): 236.6 ± 36.8 mg/dL | Plasma Triglyceride (Sprague Dawley rats): 132.1 ± 19.2 mg/dL
